Assay results taken from patent US9441006B2, “Polymorph of 2-[4-[(methylamino)carbonyl]-1H-pyrazol-1-yl]adenosine” (Farmak, a.s., priority 2013, dated 2016).
Like-named read-outs stand apart in the source and are kept apart here.

What was measured:
[1] = background art, WO 2008/143667, cited from earlier work
[2] = Dissolution rate in water (Lasentec FBRM particle size distribution measurement); format: physicochemical; details: 165 mg in 500 ml water, identical conditions, FIG. 4
Protocol: Equal amounts of both polymorphs (165 mg) were dissolved in the same amounts of water (500 ml) under identical conditions (dissolving regime, stirrer revolutions, etc.). It is obvious that the dissolution rate of polymorph E is approximately twofold. Polymorph E is completely dissolved within about 45 minutes, whereas the same amount of polymorph A is, under same conditions, dissolved after about 90 minutes.

[3] = Solubility of polymorph E in water in comparison with polymorph A; format: physicochemical; details: at different temperatures
[4] = all known polymorphic forms; cited from earlier work

CNC(=O)c1cnn(-c2nc(N)c3ncn([C@@H]4O[C@H](CO)[C@@H](O)[C@H]4O)c3n2)c1 [Polymorph C, 2-[4-[(methylamino)carbonyl]-1H-pyrazol-1-yl]adenosine]
stability of the polymorph [1]: converted to unstable forms by heating

CNC(=O)c1cnn(-c2nc(N)c3ncn([C@@H]4O[C@H](CO)[C@@H](O)[C@H]4O)c3n2)c1 [amorphous form, 2-[4-[(methylamino)carbonyl]-1H-pyrazol-1-yl]adenosine]
stability of the polymorph [1]: unstable

CNC(=O)c1cnn(-c2nc(N)c3ncn([C@@H]4O[C@H](CO)[C@@H](O)[C@H]4O)c3n2)c1 [polymorph A, 2-[4-[(methylamino)carbonyl]-1H-pyrazol-1-yl]adenosine monohydrate]
time to complete dissolution in water ([2]; monohydrate): about 90 minutes
stability of the polymorph ([1]; monohydrate): relatively stable

CNC(=O)c1cnn(-c2nc(N)c3ncn([C@@H]4O[C@H](CO)[C@@H](O)[C@H]4O)c3n2)c1 [polymorph E, 2-[4-[(methylamino)carbonyl]-1H-pyrazol-1-yl]adenosine]
dissolution rate in water relative to polymorph A [2]: approximately twofold
time to complete dissolution in water [2]: about 45 minutes
solubility in water [3]: practically the same

CNC(=O)c1cnn(-c2nc(N)c3ncn([C@@H]4O[C@H](CO)[C@@H](O)[C@H]4O)c3n2)c1 [regadenoson, 2-[4-[(Methylamino)carbonyl]-1H-pyrazol-1-yl]adenosine]
water solubility [4]: poor water solubility
